pEC50, pIC50: −log10 of the molar value.

Data set [1] addresses T1, PPARα (Homo sapiens, UniProt Q07869).
T1 sequence (Q07869 167-468 limits assumed): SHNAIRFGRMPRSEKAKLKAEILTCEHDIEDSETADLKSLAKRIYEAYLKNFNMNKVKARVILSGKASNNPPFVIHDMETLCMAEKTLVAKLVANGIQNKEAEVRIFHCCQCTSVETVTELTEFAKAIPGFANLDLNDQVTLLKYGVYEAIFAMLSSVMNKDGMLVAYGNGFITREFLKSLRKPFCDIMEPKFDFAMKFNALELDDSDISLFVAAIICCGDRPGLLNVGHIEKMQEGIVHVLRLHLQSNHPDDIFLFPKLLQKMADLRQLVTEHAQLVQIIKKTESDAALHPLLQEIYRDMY
Kind of data set: Luciferase transcriptional reporter gene assay, pFA-PPARα-LBD in BHK21 cells. The class given is cell-based. The arrangement: expressed in transfected cells; host or cells: BHK21 (ATCC CCL10). Conditions: Gal4-PPARα-LBD. An excerpt: (§1) Full-length cDNA clones for human PPARα and mouse PPARγ were obtained by RT-PCR from human adipose and mouse liver cRNA, respectively, cloned into plasmid vectors and verified by DNA sequencing. […] To accomplish this, the portions of the cloned sequences encoding the LBDs were amplified from the full-length clones by PCR and then subcloned into the plasmid vectors pGEX4T-2(Pharmacia) and pFA-CMV(Stratagene). Final clones were verified by DNA sequence analysis.
(§2) Baby hamster kidney cells (BHK21 ATCC CCL10) were grown in DMEM medium containing 10% FBS at 37° C. in a […]:5% CO2 atmosphere. Cells were seeded in 6 well plates at a density of 10^5 Cells/well and then batch-transfected with either the pFA-PPARγ-LBD or pFA-PPARα-LBD expression plasmids plus the pFR-luc reporter plasmid (Stratagene) and an expression plasmid encoding the secretable form of alkaline phosphatase (SEAP) as a normalization control. […] Six hours following transfection, the cells were harvested by trypsinization and seeded in 96 well plates at a density of 10^4 cells/well. After 24 hours to allow attachment of cells, the medium was removed and replaced with 100 ul of phenol red-free medium containing the test substances or control ligands (final. 0.1% DMSO). Following incubation of the cells for 24 hours with substances, 50 ul of the supernatant was recovered and analyzed for SEAP activity (Roche Molecular Biochemicals). The remainder of the supernatant was discarded, 50 ul PBS was added per well followed by one volume of Luciferase Constant-Light Reagent (Roche Molecular Biochemicals) to lyse the cells and initiate the luciferase reaction. Luminescence for both SEAP and luciferase was measured in a Packard TopCount. Luciferase activity was normalized to the SEAP control and transcriptional activation in the presence of a test substance was expressed as fold-activation over cells incubated in the absence of the substance. EC50 values were calculated using the XLfit program (ID Business Solutions Ltd. UK).
Background: A reporter such as luciferase makes a cellular process visible.

The target of data set [2] is T2, PPARγ (Mus musculus, UniProt P37238).
T2 construct: expressed in transfected cells; host or cells: BHK21 (ATCC CCL10)
T2 sequence (P37238 204-505): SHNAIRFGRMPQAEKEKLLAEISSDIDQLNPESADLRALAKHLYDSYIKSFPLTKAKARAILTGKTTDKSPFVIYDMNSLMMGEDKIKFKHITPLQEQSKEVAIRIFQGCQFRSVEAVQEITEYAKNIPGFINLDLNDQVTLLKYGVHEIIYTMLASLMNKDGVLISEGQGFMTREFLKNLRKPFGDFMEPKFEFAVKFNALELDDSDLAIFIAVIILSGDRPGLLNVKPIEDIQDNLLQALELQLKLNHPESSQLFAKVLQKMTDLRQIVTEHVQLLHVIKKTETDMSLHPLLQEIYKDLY
The experiment in a line: Luciferase transcriptional reporter gene assay, pFA-PPARγ-LBD in BHK21 cells. The class given is cell-based. Conditions: Gal4-PPARγ-LBD.
Text: as §1, §2

Data set [3] concerns the target T3, PPARγ (Mus musculus, UniProt P37238).
T3 construct: made in house; host or cells: E. coli BL21(pLysS)
T3 sequence (P37238 174-475 isoform P37238-2): T2 sequence (P37238 204-505)
Kind of data set: Radioligand binding assay, PPARγ receptor binding (GST-PPARγ-LBD fusion protein, SPA). Conditions: scintillation proximity.
Text: as §1
(§3) Induction, expression, and purification of GST-LBD fusion proteins were performed in E. coli strain BL21(pLysS) cells by standard methods (Ref: Current Protocols in Molecular Biology, Wiley Press, edited by Ausubel et al.).
PPARγ receptor binding was assayed in TKE50 (50 mM Tris-HCl, pH 8, 50 mM KCl, 2 mM EDTA, 0.1 mg/ml fatty acid-free BSA and 10 mM DTT). For each 96 well reaction an 140 ng equivalent of GST-PPARγ-LBD fusion protein was bound to 10 ug SPA beads (PharmaciaAmersham) in a final volume of 50 ul by shaking. The resulting slurry was incubated for 1 h at RT and centrifuged for 2 min at 1300 g. The supernatant containing unbound protein was removed and the semidry pellet containing the recptor-coated beads was resolved in 50 ul of TKE. For radioligand binding e.g. 10000 dpm 2(S)-(2-benzoyl-phenylamino)-3-{4-[1,1-ditritio-2-(5-methyl-2-phenyl-oxazol-4-yl)-ethoxy]-phenyl}-propionic acid in 50 ul were added, the reaction incubated at RT for 1 h and scintillation proximity counting performed. All binding assays were performed in 96 well plates and the amount of bound ligand measured on a Packard TopCount using OptiPlates (Packard). Nonspecific binding was determined in the presence of 10^−4 M unlabelled compound. Dose response curves were done in triplicates within a range of concentration from 10^−10 M to 10^−4 M.
(SPA uses beads or plates that emit light when radiolabelled molecules are held near them.)

In data set [4] the target is T1, PPARα. Kind of data set: Radioligand binding assay, PPARα receptor binding (GST-PPARα-LBD fusion protein).
Text: as §1, §3
PPARα receptor binding was assayed in TKE10 (10 mM Tris-HCl, pH 8, 50 mM KCl, 2 mM EDTA, 0.1 mg/ml fatty acid free BSA and 10 mM DTT). […]
PPARγ receptor binding was assayed in TKE50 (50 mM Tris-HCl, pH 8, 50 mM KCl, 2 mM EDTA, 0.1 mg/ml fatty acid-free BSA and 10 mM DTT). […] All binding assays were performed in 96 well plates and the amount of bound ligand measured on a Packard TopCount using OptiPlates (Packard). Nonspecific binding was determined in the presence of 10^−4 M unlabelled compound. […]

The pEC50 is −log10 of the EC50, conventionally taken in molar units. Read a low pEC50 as a large EC50. By pIC50 is commonly meant −log10 of the IC50, conventionally taken in molar units. Turning to `COC(Cc1ccc(OCCCc2nc(-c3ccc(Cl)cc3)oc2C)c2ccsc12)C(=O)O` (racemic) [Example 48, [rac]-3-(4-{3-[2-(4-Chloro-phenyl)-5-methyl-oxazol-4-yl]-propoxy}-benzo[b]thiophen-7-yl)-2-methoxy-propionic acid], the values for the pEC50 at PPARα [1] and at PPARγ [2] were 8.10 and 6.33, respectively. On PPARγ [3], this compound had a pIC50 of 5.50.
Regarding `C/C(=C/C(=O)c1ccc(C(F)(F)F)cc1)NC(Cc1ccc(OCCc2nc(-c3ccccc3)oc2C)c2ccsc12)C(=O)O` (racemic) [Example 106, [rac]-2-[1-Methyl-3-oxo-3-(4-trifluoromethyl-phenyl)-(Z)-propenylamino]-3-{4-[2-(5-methyl-2-phenyl-oxazol-4-yl)-ethoxy]-benzo[b]thiophen-7-yl}-propionic acid], the negative logarithm of the EC50 (pEC50) on PPARα [1] is 6.86; at PPARγ [2], 6.30. In addition, the pIC50 at PPARα [4] is 6.59; at PPARγ [3], 6.95.
One may read the melting point as the temperature, or range, at which the solid turns liquid. `CCCCOC(Cc1ccc(OCCc2nc(-c3ccccc3)oc2C)c2ccsc12)C(=O)O` (stereo not shown) [Example 4, 2-Butoxy-3-{4-[2-(5-methyl-2-phenyl-oxazol-4-yl)-ethoxy]-benzo[b]thiophen-7-yl}-propionic acid]: the melting point was 123 °C (dec.).
Still for that read-out and setting: with `CCCCOC(Cc1ccc(OCCc2nc(-c3ccccc3)oc2C)c2ccccc12)C(=O)O` (stereo not shown) [Example 10, 2-Butoxy-3-{4-[2-(5-methyl-2-phenyl-oxazol-4-yl)-ethoxy]-naphthalen-1-yl}-propionic acid] the figure was 88 to 90 °C (dec.).
As to `CCO/C(=C\c1ccc(OCCc2nc(-c3ccccc3)oc2C)c2ccoc12)C(=O)O` [Example 83, 2Z-Ethoxy-3-{4-[2-(5-methyl-2-phenyl-oxazol-4-yl)-ethoxy]-benzofuran-7-yl}-acrylic acid], the negative-log EC50 (pEC50) on PPARα [1] is 6.13; at PPARγ [2], 6.73. Further, the values for the pIC50 on PPARα [4] and on PPARγ [3] were 6.96 and 7.60, respectively.

Values taken from US6642389B2, “Oxazole derivatives” (Hoffmann-La Roche Inc., priority 2001, dated 2003).
